Test results published in PMC9120017, “Inhibition mechanism of the chloride channel TMEM16A by the pore blocker 1PBC” (Nature Communications, 2022).
Read-outs that look alike come from different tables or passages of the source.

Target: T1, mouse TMEM16A mutant R535A (Mus musculus, UniProt Q8BHY3, R535A)
T1 construct: expressed in transfected cells; host or cells: HEK293T
T1 sequence (Q8BHY3 1-960 R535A): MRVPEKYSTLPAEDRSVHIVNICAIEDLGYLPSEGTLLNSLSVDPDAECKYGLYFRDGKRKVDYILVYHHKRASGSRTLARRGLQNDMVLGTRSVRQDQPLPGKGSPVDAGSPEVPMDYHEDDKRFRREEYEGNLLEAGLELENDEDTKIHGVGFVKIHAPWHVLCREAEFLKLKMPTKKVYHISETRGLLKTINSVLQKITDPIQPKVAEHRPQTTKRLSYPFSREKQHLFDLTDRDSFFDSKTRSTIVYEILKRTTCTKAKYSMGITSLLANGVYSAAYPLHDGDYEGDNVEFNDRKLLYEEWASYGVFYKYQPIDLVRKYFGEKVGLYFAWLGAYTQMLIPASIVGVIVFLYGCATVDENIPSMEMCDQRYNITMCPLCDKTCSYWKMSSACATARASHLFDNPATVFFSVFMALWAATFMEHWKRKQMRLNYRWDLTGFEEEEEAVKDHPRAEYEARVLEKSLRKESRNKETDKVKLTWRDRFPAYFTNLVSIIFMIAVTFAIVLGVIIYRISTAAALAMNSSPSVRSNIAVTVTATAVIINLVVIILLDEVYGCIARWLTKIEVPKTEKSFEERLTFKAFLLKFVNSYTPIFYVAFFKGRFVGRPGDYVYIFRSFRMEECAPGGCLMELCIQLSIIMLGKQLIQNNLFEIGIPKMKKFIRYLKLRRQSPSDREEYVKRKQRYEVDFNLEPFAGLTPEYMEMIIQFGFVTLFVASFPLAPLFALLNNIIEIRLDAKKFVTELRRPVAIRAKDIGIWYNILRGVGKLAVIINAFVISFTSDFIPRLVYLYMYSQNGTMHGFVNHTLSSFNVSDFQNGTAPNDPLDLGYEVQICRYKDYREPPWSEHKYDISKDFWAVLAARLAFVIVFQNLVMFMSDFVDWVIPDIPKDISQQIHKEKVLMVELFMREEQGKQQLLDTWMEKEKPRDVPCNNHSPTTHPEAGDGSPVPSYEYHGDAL
Assay: Inside-out patch recording of 1PBC block, mutant R535A
Type: cell-based
Conditions: for remaining activity at 30 µM: 1PBC 30; for remaining activity at 30 µM / remaining activity at 100 µM: read-out: fraction of unblocked current; for remaining activity at 100 µM: 1PBC 100
Method: HEK293T cells (ATCC CRL-1573) were maintained in Dulbecco’s modified Eagle’s medium (DMEM; Sigma-Aldrich) supplemented with 10 U ml^−1 penicillin, 0.1 mg ml^−1 streptomycin (Sigma-Aldrich), 2 mM L-glutamine (Sigma-Aldrich), and 10% FBS (Sigma-Aldrich) in a humidified atmosphere containing 5% CO2 at 37 °C. HEK293S GnTI^− cells (ATCC CRL-3022) were maintained in HyClone HyCell TransFx-H medium (GE Healthcare) supplemented with 10 U ml^−1 penicillin, 0.1 mg ml^−1 streptomycin, 4 mM L-glutamine, 0.15% poloxamer 188 (Sigma-Aldrich), and 1% FBS in an atmosphere containing 5% CO2 at 185 rpm at 37 °C. The ac splice variant of mouse TMEM16A (UniProt ID: Q8BHY3), mouse TMEM16B (UniProt ID: Q8CFW1), or mouse TMEM16F (UniProt ID: Q6P9J9) bearing a 3C cleavage site, a Venus YFP, a Myc tag, and a Streptavidin-binding peptide (SBP) downstream of the open reading frame in a modified pcDNA3.1 vector (Invitrogen) were used as described previously[21],[31]. Mutations were introduced using a modified QuikChange method[58] and were verified by sequencing.
HEK293T cells were transfected with 3–4 μg DNA per 6 cm Petri dish using the calcium phosphate co-precipitation method and were used within 24–96 h after transfection. Recordings were performed on inside-out patches excised from HEK293T cells expressing the construct of interest. Patch pipettes were pulled from borosilicate glass capillaries (O.D. 1.5 mm, I.D. 0.86 mm, Sutter Instrument) and were fire-polished with a microforge (Narishige) before use. Pipette resistance was typically 3–8 MΩ when filled with the recording solutions detailed below. Seal resistance was typically 4 GΩ or higher. Voltage-clamp recordings were made using Axopatch 200B, Digidata 1550, and Clampex 10.7 (Molecular Devices). Analog signals were filtered with the in-built 4-pole Bessel filter at 10 kHz and were digitized at 20 kHz. Solution exchange was achieved using a gravity-fed system through a theta glass pipette mounted on an ultra-fast piezo-driven stepper (Siskiyou). […] All recordings were performed at 20 °C.
A symmetrical ionic condition was used throughout. Stock solution with Ca^2+-EGTA contained 150 mM NaCl, 5.99 mM Ca(OH)2, 5 mM EGTA, and 10 mM HEPES at pH 7.40. Stock solution with EGTA contained 150 mM NaCl, 5 mM EGTA, and 10 mM HEPES at pH 7.40. Free Ca^2+ concentrations were adjusted by mixing the stock solutions at the required ratios calculated using the WEBMAXC program (http://web.stanford.edu/~cpatton/webmaxcS.htm). Patch pipettes were filled with the stock solution with Ca^2+-EGTA, which has a free Ca^2+ concentration of 1 mM. 1PBC (ChemBridge) stock was reconstituted in anhydrous DMSO (Sigma-Aldrich) at 100 mM and stored at −20 °C. Working solutions with 1PBC were prepared by serial dilution. Unless otherwise stated, experiments were performed at a saturating Ca^2+ concentration as shown in Supplementary Table 1 and the primary data were corrected for current rundown as described previously[21],[25].
Concentration-response relations, obtained from the ratio of the I-V plots before and after the application of the blocker, were fitted to the Hill equation,1 I/Imax=1/1+IC50/[blocker]^h where I/Imax is the normalized current responses, IC50 defines the concentration at which inhibition is at its half-maximum, and h is the Hill coefficient.

remaining activity at 30 µM (-60 mV): 41.8%
remaining activity at 30 µM (-80 mV): 46.3%
remaining activity at 30 µM (-100 mV): 50.1%
remaining activity at 30 µM (-120 mV): 53.6%
remaining activity at 30 µM (-140 mV): 55.9%
remaining activity at 100 µM (0 mV): 10.2%
remaining activity at 100 µM (20 mV): 8.03%
remaining activity at 100 µM (40 mV): 6.85%
remaining activity at 100 µM (60 mV): 5.65%
remaining activity at 100 µM (80 mV): 5.26%
remaining activity at 100 µM (100 mV): 4.79%
remaining activity at 100 µM (120 mV): 4.05%
remaining activity at 100 µM (140 mV): 4.54%
remaining activity at 100 µM (-20 mV): 12.4%
remaining activity at 100 µM (-40 mV): 14.1%
remaining activity at 100 µM (-60 mV): 17.7%
remaining activity at 100 µM (-80 mV): 21.3%
remaining activity at 100 µM (-100 mV): 25.1%
remaining activity at 100 µM (-120 mV): 29%
remaining activity at 100 µM (-140 mV): 32.4%
IC50 (20 mV, 2 µM Ca2+): 9.48 µM
IC50 (40 mV, 2 µM Ca2+): 7.82 µM
IC50 (60 mV, 2 µM Ca2+): 6.65 µM
log-fold IC50 (change of mutant vs WT) (80 mV): 0.4043
IC50 (80 mV, 2 µM Ca2+): 6.02 µM
IC50 (100 mV, 2 µM Ca2+): 5.51 µM
IC50 (120 mV, 2 µM Ca2+): 5.53 µM
IC50 (140 mV, 2 µM Ca2+): 5.76 µM
IC50 (-20 mV, 2 µM Ca2+): 14.9 µM
IC50 (-40 mV, 2 µM Ca2+): 17.7 µM
IC50 (-60 mV, 2 µM Ca2+): 21.4 µM
IC50 (-80 mV, 2 µM Ca2+): 25.9 µM
IC50 (-100 mV, 2 µM Ca2+): 30.1 µM
IC50 (-120 mV, 2 µM Ca2+): 35.1 µM
IC50 (-140 mV, 2 µM Ca2+): 38.8 µM
IC50 (R535A, V 0 mV): 11.9 µM
IC50 (R535A, V 20 mV): 9.48 µM
IC50 (R535A, V 40 mV): 7.82 µM
IC50 (R535A, V 60 mV): 6.65 µM
IC50 (R535A, V 80 mV): 6.02 µM
IC50 (R535A, V 100 mV): 5.51 µM
IC50 (R535A, V 120 mV): 5.53 µM
IC50 (R535A, V 140 mV): 5.76 µM
IC50 (R535A, V -20 mV): 14.9 µM
IC50 (R535A, V -40 mV): 17.7 µM
IC50 (R535A, V -60 mV): 21.4 µM
IC50 (R535A, V -80 mV): 25.9 µM
IC50 (R535A, V -100 mV): 30.1 µM
IC50 (R535A, V -120 mV): 35.1 µM
IC50 (R535A, V -140 mV): 38.8 µM
SMILES: N#Cc1c(C(F)(F)F)cc(O)n2c1nc1ccccc12 [1PBC]
